Assay results: patent US11234954B2, “Low-dose doxepin for treatment of sleep disorders in elderly patients” (Pernix Sleep, Inc., priority 2006, dated 2022)
Like-named read-outs stand apart in the source and are kept apart here.

What was measured:
[1] = test system: patients aged 65 years or older with primary sleep maintenance insomnia; test: Subjective sleep data, elderly crossover study (Example 1); assay type: in vivo, human; settings: n = 71
Source text: “sWASO” refers to subjective wake after sleep onset (WASO).
“sTST” refers to subjective total sleep time.
“sNAASO” refers to subjective NAASO.
“LSO” refers to “latency to sleep onset, typically expressed in minutes.
The patients report subjected data, which were consistent with the PSG data.

[2] = test system: primary elderly insomnia patients with sleep maintenance difficulties; assay type: in vivo, human
Experimental: Subjects were females and males, 65 years of age or older, with at least a 3-month history of primary insomnia (as defined in the Diagnostic and Statistical Manual of Mental Disorders, Fourth Edition, Text Revision), who reported experiencing at least 60 minutes of Wake After Sleep Onset (WASO), at least 30 minutes of Latency to Sleep Onset (LSO), and no more than 6.5 hours of Total Sleep Time (TST) on at least 4 of 7 consecutive nights prior to PSG Screening.
Primary Efficacy Variable: The primary efficacy variable was WASO on Night 1.
Additional PSG Variables: Additional efficacy variables assessed on each PSG recording night during the Double-blind Treatment Period were WASO (Night 15, Night 29, Night 57, and Night 85); WTDS; TST; Sleep Efficiency (SE) overall, by third of the night, the last quarter of the night, and hour of the night; LPS; Latency to Stage 2 Sleep; Number of Awakenings After Sleep Onset (NAASO) overall and by hour; Total Wake Time (TWT) overall and by hour; Wake Time After Sleep (WTAS); and sleep architecture (including percentage and minutes of Stage 1, 2, and 3-4 sleep; percentage and minutes of rapid eye movement [REM] and non-REM sleep; and Latency to REM Sleep.)

[3] = test system: primary elderly insomnia patients with sleep maintenance difficulties; test: Clinical Global Impressions (CGI), Phase III elderly study (Example 2); assay type: in vivo, human
Experimental: Subjective Variables: Subjective efficacy variables were subjective TST (sTST), subjective WASO (sWASO), LSO, subjective NAASO (sNAASO), and sleep quality. These variable were assessed using a questionnaire completed in the morning following each PSG recording night. Drowsiness, ability to function, and total nap time during the day were assessed using an evening questionnaire completed prior to PSG recording at Nights −6, −5, 1, 15, 29, 57, and 85. Other secondary subjective efficacy variables included the 2-item Clinical Global Impressions (CGI) scale for severity of illness and therapeutic effect completed by a clinician; the 5-item CGI scale pertaining to therapeutic effect completed by the subject; the Insomnia Severity Index (ISI) completed by the subject, and a subjective assessment of sTST, LSO, and sleep quality collected through the IVRS.
Clinical Global Impressions (CGI) ns (CGI) consist of two questions addressed to the clinician relating to the severity of illness and therapeutic effect of the study drug and five questions addressed to the patient relating to the therapeutic effect of the drug.

[4] = test system: Adult Patients (Ages 18-64) with Primary Insomnia; test: Subjective sleep parameters, adult crossover study (Example 3); assay type: in vivo, human; settings: Per-Protocol N = 61
Source text: The primary and secondary efficacy assessments were as described above in Example 1.

[5] = in vivo; cited from earlier work
[6] = test system: primary elderly insomnia patients with sleep maintenance difficulties; test: Safety and TEAEs, Phase III elderly study (Example 2)
Experimental: A phase III, randomized, double-blind, placebo-controlled, parallel-group, multicenter study was conducted to assess the long term efficacy and safety of two dose levels of doxepin HCl, 1 mg and 3 mg, in primary elderly insomnia patients with sleep maintenance difficulties.
Doxepin 1 mg tablets or 3 mg tablets (lot number 3044567) were administered as a single oral dose for 85 consecutive nights during the 12-week Double-blind Treatment Period.

Compound: CN(C)CCC=C1c2ccccc2COc2ccccc21 (mixture of isomers) [Doxepin]
- LSO, Mean (SD) ([1]; 1 mg): 42.3 (32.1)
- Sleep Quality, Mean (SD) ([1]; 1 mg): 0.8 (1.0)
- sNAASO, Mean (SD) ([1]; 1 mg): 3.2 (2.1)
- sTST, Mean (SD) ([1]; 1 mg): 355.7 (63.1)
- sWASO, Mean (SD) ([1]; 1 mg): 74.3 (55.2)
- LSO, Mean (SD) ([1]; 3 mg): 42.4 (40.1)
- Sleep Quality, Mean (SD) ([1]; 3 mg): 0.9 (1.0)
- sNAASO, Mean (SD) ([1]; 3 mg): 2.9 (1.7)
- sTST, Mean (SD) ([1]; 3 mg): 362.4 (64.3)
- sWASO, Mean (SD) ([1]; 3 mg): 72.2 (56.4)
- LSO, Mean (SD) ([1]; 6 mg): 33.9 (24.8)
- Sleep Quality, Mean (SD) ([1]; 6 mg): 0.8 (1.0)
- sNAASO, Mean (SD) ([1]; 6 mg): 3.0 (1.4)
- sTST, Mean (SD) ([1]; 6 mg): 369.4 (65.3)
- sWASO, Mean (SD) ([1]; 6 mg): 71.5 (57.4)
- LS mean WASO shorter compared with the placebo group ([2]; Night 1, 1 mg): 17.8 min
- LPS, mean (SD) ([2]; Night 1, 1 mg, ITT N = 77): 38.8 (29.58) minutes
- SE Overall, mean (SD) ([2]; Night 1, 1 mg, ITT N = 77): 74.8 (11.05) %
- TST, mean (SD) ([2]; Night 1, 1 mg, ITT N = 77): 359.1 (53.05) minutes
- WTAS, mean (SD) ([2]; Night 1, 1 mg, ITT N = 77): 8.9 (18.84) minutes
- WASO, Diff. of LS Mean versus placebo ([2]; Night 1, 1 mg, ITT n = 77): -17.8 min
- WASO, Mean (Primary Efficacy Variable) ([2]; Night 1, 1 mg, ITT n = 77): 91.8 min
- LS mean WASO shorter compared with the placebo group ([2]; Night 1, 3 mg): 33.8 min
- LPS, mean (SD) ([2]; Night 1, 3 mg, ITT N = 82): 28.6 (20.53) minutes
- SE Overall, mean (SD) ([2]; Night 1, 3 mg, ITT N = 82): 79.8 (9.21) %
- TST, mean (SD) ([2]; Night 1, 3 mg, ITT N = 82): 382.9 (44.23) minutes
- WTAS, mean (SD) ([2]; Night 1, 3 mg, ITT N = 82): 4.7 (14.61) minutes
- WASO, Diff. of LS Mean versus placebo ([2]; Night 1, 3 mg, ITT n = 82): -33.8 min
- WASO, Mean (Primary Efficacy Variable) ([2]; Night 1, 3 mg, ITT n = 82): 74.5 min
- LPS, mean (SD) ([2]; Night 85, 1 mg, ITT N = 77): 29.0 (26.45) minutes
- SE Overall, mean (SD) ([2]; Night 85, 1 mg, ITT N = 77): 75.1 (9.83) %
- TST, mean (SD) ([2]; Night 85, 1 mg, ITT N = 77): 360.5 (47.17) minutes
- WTAS, mean (SD) ([2]; Night 85, 1 mg, ITT N = 77): 10.8 (21.78) minutes
- WASO, Diff. of LS Mean versus placebo ([2]; Night 85, 1 mg, ITT n = 69): -14.6 min
- WASO, Mean ([2]; Night 85, 1 mg, ITT n = 69): 97.0 min
- LPS, mean (SD) ([2]; Night 85, 3 mg, ITT N = 82): 37.5 (32.74) minutes
- SE Overall, mean (SD) ([2]; Night 85, 3 mg, ITT N = 82): 77.9 (8.80) %
- TST, mean (SD) ([2]; Night 85, 3 mg, ITT N = 82): 373.7 (42.24) minutes
- WTAS, mean (SD) ([2]; Night 85, 3 mg, ITT N = 82): 5.4 (13.20) minutes
- WASO, Diff. of LS Mean versus placebo ([2]; Night 85, 3 mg, ITT n = 74): -33.2 min
- WASO, Mean ([2]; Night 85, 3 mg, ITT n = 74): 75.7 min
- mean CGI (clinician-rated) severity of illness and therapeutic effect scores compared with placebo ([3]; Night 85, both doxepin treatment groups (1 mg, 3 mg)): statistically significant improvements
- CGI (subject-rated) scale of therapeutic effect, all five parameters, compared with placebo ([3]; after 85 nights of treatment, both doxepin groups (1 mg, 3 mg)): statistically significant improvements
- LSO, Mean ([4]; 1 mg): 46.9 min
- sTST, Mean ([4]; 1 mg): 364.2 min
- sWASO, Mean ([4]; 1 mg): 56.1 min
- LSO, Mean ([4]; 3 mg): 46.1 min
- sTST, Mean ([4]; 3 mg): 379.7 min
- sWASO, Mean ([4]; 3 mg): 50.5 min
- LSO, Mean ([4]; 6 mg): 44.1 min
- sTST, Mean ([4]; 6 mg): 383.0 min
- sWASO, Mean ([4]; 6 mg): 42.1 min
- mean half-life [5]: 17 h
- deaths during the study or within 30 days following last dose ([6]; 1 mg and 3 mg): no reported deaths
- Infections and Infestations, subjects (%) ([6]; 1 mg, N = 77): 12 (16%)
- Upper respiratory tract infection, subjects (%) ([6]; 1 mg, N = 77): 2 (3%)
- Urinary tract infection, subjects (%) ([6]; 1 mg, N = 77): 2 (3%)
- Infections and Infestations, subjects (%) ([6]; 3 mg, N = 82): 11 (13%)
- Upper respiratory tract infection, subjects (%) ([6]; 3 mg, N = 82): 1 (1%)
- Urinary tract infection, subjects (%) ([6]; 3 mg, N = 82): 0 (0%)
